Assay results published in US12233057B2, “Small molecules for inhibiting chemokine activity and/or cancer cells growth” (AlonBio Ltd., priority 2015, dated 2025).

Key:
[1] = test system: MV4-11 human acute myeloid leukemia cells; test: Cancer cell viability assay, propidium iodide staining (FACS); format: cell-based
Procedure: (§1) The cancer cells were incubated in cell medium with 1% fetal calf serum (FCS) at a concentration of 2×10^5 cells/well at a final volume of 250 μl in 96-well plate. The tested small molecule was added to the cells at the indicated concentrations. The cells were incubated for 24 hours and the number of dead and viable cells was then evaluated by fluorescence-activated cell sorting (FACS), using propidium iodide (PI) staining. The IC50 of the small molecule-induced cell death was determined using GraphPad Prism software.
In order to assess the effect of BKT300 on cancer cells viability, the in vitro effect on MV4-11 human acute myeloid leukemia cells was evaluated. The MV4-11 cancer cells were incubated in RPMI cell medium with 1% fetal calf serum (FCS) at a concentration of 2×10^5 cells/well at a final volume of 250 μl in 96-well plate. BKT300 was added to the cells at the indicated concentrations. The cells were incubated for 24 hours and the number of dead and viable cells was then evaluated by fluorescence-activated cell sorting (FACS), using propidium iodide (PI) staining. The IC50 of […] cell death was determined using GraphPad Prism software.

SDF-1 = test: Migration assay: Jurkat cells towards SDF-1 (Transwell); format: cell-based, human; details: for Inhibition of SDF-1/CXCR4 mediated migration of Jurkat cells: 1, 5, 10 and 50 μM (FIGS. 19A-B)
Procedure: (§2) 600 μl of RPMI medium was added to the lower chambers of Transwell® transmigration plates, supplemented with 2 μg/ml of MIP3a, 100 ng/ml of SDF-1 or 10 ng/ml of MCP-1. The tested small molecule was added to the lower chambers at the indicated concentration, except in control samples. The MIP3a, SDF-1 or MCP-1 was incubated with the small molecule for 30 minutes at room temperature before the initiation of the migration assay. Following 30 minutes of incubation 2×10^5 immune cells were added to the upper chambers of the transmigration plates in a total volume of 100 μl. Cells which migrated within 3 hours to the bottom chamber of the Transwell® plates were counted using a FACScalibur™ flow cytometer.
To evaluate migration towards SDF-1, Jurkat cells were re-suspended in RPMI medium containing 1% fetal calf serum (FCS).

various cancer cells = test: 7-ADD staining of various cancer cells (cell cycle / apoptosis); format: cell-based; details: 1 μM, 24-hour incubation, all tested cells (FIG. 29)
Procedure: While further studying the activity of BKT300-3-c5, various cancer cells were incubated with 1 μM BKT300-3-c5, and without it (control), and then stained for 7-ADD.

glioblastoma = details: animal studies; Kioi et al. 2010; cited from earlier work
metastasis = details: animal studies; Smith et al. 2004; cited from earlier work
[2] = animal studies; Wilson et al. 2011; cited from earlier work
RPMI8826 = test: Inhibition of cell growth in additional cancer cell lines; format: cell-based; details: 1.0 Micromolar; RPMI8826, Myeloma
SKNBE = test: as above; format: cell-based; details: 1.0 Micromolar, Neuroblastoma
HL60 = test: as above; format: cell-based; details: Homo sapiens, HL-60; 1.0 Micromolar; HL60, AML
H460 = test: as above; format: cell-based; details: Homo sapiens, NCI-H460; 1.0 Micromolar; H460, Lung
MV4-11 cells = test: Annexin-V and Propidium Iodide staining of MV4-11 cells; format: cell-based, human; details: 1 μM, 24 hours (FIG. 30)
Procedure: In further studies, apoptosis induction by BKT300-3-c5 was established by incubating MV4-11 cells with and without BKT300-3-c5 (1 μM) for 24 hours, followed by staining the cells for Annexin-V and Propidium Iodide (PI).

OVCAR3 = test: Inhibition of cell growth in additional cancer cell lines; format: cell-based; details: Homo sapiens, OVCAR-3; 1.0 Micromolar; OVCAR3, Ovarian
U937 cells [3] = test: Apoptosis and cell viability by annexin-V/PI assay in U937 cells; format: cell-based; details: U937, 24 hours; for Concentration at which an effect on apoptosis was observed / Concentration at which an effect on cell viability was observed: tested 0.1, 1 and 10 μM; for Effect on apoptosis: any of the tested concentrations (0.1, 1 and 10 μM)
Procedure: (§3) U937 cells were incubated for 24 hours with RPMI medium 1% FCs in the presence of 0.1, 1, and 10 μM of Compounds A1, A3, B1, D1 and BKT300-3-c5, using DMSO as a solvent.
Apoptosis and cell viability were measured using the annexin-V/PI assay.

MCP-1 = MCP-1 (Homo sapiens, UniProt P13500); test: Migration assay: THP-1 cells towards MCP-1 (Transwell); format: cell-based; details: 0.1, 0.5, 1 and 10 μM (FIG. 20B)
Chain of MCP-1 (P13500 24-99): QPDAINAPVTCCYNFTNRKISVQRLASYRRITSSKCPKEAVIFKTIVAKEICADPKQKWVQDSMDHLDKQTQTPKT
Procedure: as §2
To evaluate migration towards MCP-1, JTHP-1 cells were re-suspended in RPMI medium containing 1% fetal calf serum (FCS).

caspase-3 = test: Cleaved caspase-3 by Western blot and Elisa in AML cell lines NB4, U937 and MV4-11; format: cell-based, human; details: 1 μM, 24 hours; NB4, U937 and MV4-11 (FIGS. 31A-C)
Procedure: In still further studies, the role of caspase-3 (CASP3) in the BKT300-3-c5-induced apoptosis of AML cell lines NB4, U937 and MV4-11 was tested. Cells were incubated with BKT300-3-c5 (1 μM) for 24 hours, and were then tested for the presence of cleaved using mAb against human cleaved caspase 3 by Western blot and Elisa assay to caspase-3.

Farage = test: Inhibition of cell growth in additional cancer cell lines; format: cell-based; details: 1.0 Micromolar, DLBCL
[4] = test system: MV4-11, U937, REH, THP-1, NB4, PC-3 and B16-F10 cells; test: Cancer cell viability assay (PI staining), comparison with IPI-145 in all tested cell lines; format: cell-based; details: 24 hours
Procedure: as §1
The effect of BKT300-3-c5 on the viability of various cancer cells has been tested, as described under the “method” section hereinabove, and compared to the effect of IPI-145.
FIGS. 22A-B, 23A-B, 24A-B and 25A-B present the effect of BKT300-3-c5 and IPI-145 on various leukemic cells: U937, REH, THP-1 and NB4, respectively.
FIG. 26 presents the effect of BKT300-3-c5 and IPI-145 on prostate cancer PC-3 cells.
FIG. 27 presents the effect of BKT300-3-c5 and IPI-145 on melanoma B16-F10 cells.

SU-DHL-6 = test: Inhibition of cell growth in additional cancer cell lines; format: cell-based; details: Homo sapiens; 1.0 Micromolar; SU-DHL-6, DLBCL
SU-DHL-4 = test: as above; format: cell-based; details: Homo sapiens; 1.0 Micromolar; SU-DHL-4, DLBCL
Toledo = test: as above; format: cell-based; details: Homo sapiens, 1.0 Micromolar, DLBCL
U937 cells [5] = test: Cell cycle by 7-AAD assay in U937 cells; format: cell-based; details: U937, 24 hours; for Effect on cell cycle: any of the tested concentrations (0.1, 1 and 10 μM)
Procedure: as §3
Cell cycle was measured using the 7-AAD assay.

K562 = test: Inhibition of cell growth in additional cancer cell lines; format: cell-based; details: Homo sapiens; 1.0 Micromolar; K562, CML
Legionella = details: cited from earlier work
other bacteria = details: Nomura et al., Biol Pharm Bull 2012; cited from earlier work

For `CCCCCc1cc(OC)ccc1Oc1cc(OC)cc2c1NC(=O)C(CCCCC)C2=O` (stereo not shown) [BKT300-11-a5, 6-methoxy-8-(4-methoxy-2-pentylphenoxy)-3-pentylquinoline-2,4(1H,3H)-dione], the “Effect on the viability of MV4-11 cells” value ([1]; 1.328, 6.64, 13.28 and 26.56 μM (FIGS. 28A-B)) was “affect viability” and the “Inhibition of SDF-1/CXCR4 mediated migration of Jurkat cells” value (SDF-1) was “inhibition”.
In the case of `C[C@H](Nc1ncnc2nc[nH]c12)c1cc2cccc(Cl)c2c(=O)n1-c1ccccc1` [IPI-145, reference compound], the “Apoptotic cell death, 7-ADD staining” value (various cancer cells) is reported as “does not affect growth arrest nor apoptosis” and the “Growth arrest (cell cycle), 7-ADD staining” value (various cancer cells) is reported as “does not affect growth arrest nor apoptosis”.
In the case of `c1cc(CN2CCCNCCNCCCNCC2)ccc1CN1CCCNCCNCCCNCC1` [plerixafor], the “Effect on recurrence of glioblastoma” value (glioblastoma) is given as “reduce recurrence of glioblastoma associated with vasculogenesis”, the Effect on metastasis (metastasis) is given as “reduce metastasis” and the “Effect on opioid-induced hyperalgesia” value [2] is given as “counteract opioid-induced hyperalgesia”.
Work on `CCCCCC1C(=O)Nc2c(Oc3ccc(OC)cc3OC)cc(OC)cc2C1=O` (stereo not shown) [BKT300-3-c5, 8-(2,4-dimethoxyphenoxy)-6-methoxy-3-pentylquinoline-2,4(1H,3H)-dione] yielded an inhibition at 1 µM (RPMI8826) of 90.6%, an IC50 ([1]; Homo sapiens, MV4-11, 24 hour-treatment (FIG. 21B), read-out: IC50, viability of MV4-11 AML cells) of 850 nM and an inhibition at 1 µM (SKNBE) of 73%. The inhibition at 1 µM (HL60) was 94.9%, the inhibition at 1 µM (H460) was 78% and the “Apoptosis induction, percentage of viable MV4-11 cells” value (MV4-11 cells) was “reduction in the percentage of viable cells via apoptosis”. For the same molecule, the inhibition at 1 µM (OVCAR3) was 93.7%, the “Concentration at which an effect on apoptosis was observed” value (U937 cells [3]) was 0.1 µM and the “Concentration at which an effect on cell viability was observed” value (U937 cells [3]) was 0.1 µM. The “Inhibiting MCP-1 induced migration of THP-1, compared to IPI-145” value (MCP-1) was “more effective that IPI-145”, the “Cleaved caspase-3 in induced apoptosis” value (caspase-3) was “via caspase-3 activation” and the inhibition at 1 µM (Farage) was 40%. The “Reducing the survival of cancer cells, compared to IPI-145” value [4] was “superior effect compared to IPI-145”, the inhibition at 1 µM (SU-DHL-6) was 50% and the inhibition at 1 µM (SU-DHL-4) was 34%. For the same molecule, the inhibition at 1 µM (Toledo) was 4%, the “Concentration at which cell cycle arrest is demonstrated” value (U937 cells [5]; tested 0.1, 1 and 10 μM) was 0.1 µM and the inhibition at 1 µM (K562) was 71%. For the same molecule, the “Apoptotic cell death, 7-ADD staining” value (various cancer cells) was “induce apoptotic cell death”, the “Growth arrest (cell cycle), 7-ADD staining” value (various cancer cells) was “arrest the growth at the G2M phase” and the “Inhibiting SDF-1/CXCR4 mediated migration of Jurkat cells, compared to IPI-145” value (SDF-1; 1, 5, 10 and 20 μM (FIG. 20A)) was “more effective that IPI-145”. The “Inhibition of SDF-1/CXCR4 mediated migration of Jurkat cells” value (SDF-1) was “inhibition”.
With `CCCCCC1C(=O)Nc2c(Oc3ccc(OC)cc3)cc(OC)cc2C1=O` (stereo not shown) [Compound B1, 6-methoxy-8-(4-methoxyphenoxy)-3-pentylquinoline-2,4(1H,3H)-dione] the “Concentration at which an effect on apoptosis was observed” value (U937 cells [3]) was 1 µM, the “Concentration at which an effect on cell viability was observed” value (U937 cells [3]) was 1 µM and the “Concentration at which cell cycle arrest is demonstrated” value (U937 cells [5]; tested 0.1, 1 and 10 μM) was 10 µM. For the same molecule, the “Concentration at which some effect on cell cycle is already observed” value (U937 cells [5]; tested 0.1, 1 and 10 μM) was 1 µM.
In the case of `COc1ccc(Oc2cc(OC)cc3c2NC(=O)CC3=O)c(OC)c1` [Compound A1, 8-(2,4-dimethoxyphenoxy)-6-methoxyquinoline-2,4(1H,3H)-dione], the Effect on apoptosis (U937 cells [3]) is reported as “no effect” and the “Effect on cell cycle” value (U937 cells [5]) is reported as “no effect”.
For `CCCCCc1cc2cc(O)cc(Oc3c(O)cc(O)c(C(=O)O)c3CCCCC)c2c(=O)o1` [BKT400], the “Inhibition of migration of Jurkat cells towards SDF-1” value (SDF-1; 1 and 10 μg/ml (FIG. 2C)) was “inhibit”.
In the case of `CCCCCC1C(=O)Nc2c(Oc3ccccc3OC)cc(OC)cc2C1=O` (stereo not shown) [Compound D1, 6-methoxy-8-(2-methoxyphenoxy)-3-pentylquinoline-2,4(1H,3H)-dione], the “Concentration at which an effect on apoptosis was observed” value (U937 cells [3]) is reported as 0.1 µM, the “Concentration at which an effect on cell viability was observed” value (U937 cells [3]) is reported as 0.1 µM and the “Concentration at which cell cycle arrest is demonstrated” value (U937 cells [5]; tested 0.1, 1 and 10 μM) is reported as 1 µM.
In the case of `CCC1C(=O)Nc2c(Oc3ccc(OC)cc3OC)cc(OC)cc2C1=O` (stereo not shown) [Compound A3, 8-(2,4-dimethoxyphenoxy)-3-ethyl-6-methoxyquinoline-2,4(1H,3H)-dione], the Effect on apoptosis (U937 cells [3]) is reported as “no effect” and the “Effect on cell cycle” value (U937 cells [5]) is reported as “no effect”.
In the case of `CCCCCC(=O)Cc1cc(O)cc(O)c1Oc1cc(O)cc2cc(CCCCC)oc(=O)c12` [8-(2,4-dihydroxy-6-(2-oxoheptyl)-phenoxy)-6-hydroxy-3-pentyl-1H-isochromen-1-one], the “Antibacterial activity against Legionella” value (Legionella) is listed as “potent antibacterial activity” and the “Antibacterial activity against other bacteria” value (other bacteria) is listed as “not against other bacteria”.
